In patent US4732972A, “Polypeptides having growth hormone releasing activity” (Hoffmann-La Roche Inc., priority 1985, dated 1988):
Ends that are not written are not given here.

Assays:
rat pituitary cells = assay: Growth hormone release in rat pituitary cells in tissue culture (RIA for rat growth hormone); assay type: cell-based; settings: for Growth Hormone Released, Percentage of Control / Growth Hormone Released: 3 hours incubation; for Growth Hormone Released: control 82
Protocol: The biological activity of (Leu^27)-GRF(1-44)-OH was compared with that of natural GRF(1-44)-NH2 which was isolated from a human pancreatic tumor of an individual suffering from acromegaly (Salk Institute standard hp-GRF-NH2 (NL-A-10)). The assay for biological activity, which is based on the ability to stimulate production of growth hormone in rat pituitary cells in tissue culture, was performed in the following manner.
Pituitaries from 30-40 male Sprague-Dawley rats (175 g) were removed aseptically after decapitation. The anterior lobes were collected, washed 3 times in sterile Hepes buffer (0.025M) (pH 7.35) and dispersed at 37° C. in 20-30-ml Hepes buffer (pH 7.35) containing collagenase (4 mg per ml) and Dispase (Protease grade II, 2 mg per ml). After gentle 100-110-min vortexing and trituration by Pasteur pipette, the dispersed cells were separated by centrifugation (150×g, 4 min) and re-suspended in Hepes buffer containing neuraminidase (8 μg/ml), and 200 μg/ml ethylenedinitrilotetraacetic acid (EDTA) disodium salt pH 7.35, for 10 min. The cells were washed twice with plating medium and plated on multiwell-plates (1.5×10^5 cells per ml) using the following defined medium: F-12/DMEM/(6:3:1) (Gibco: 430-1700/430-1600/320-2591) with 2 g BSA/l., 2.38 g Hepes/l, 50 mg Garamycin/l (Schering Co.). The medium in each well was supplemented either with (Leu^27)-GRF(1-44)-OH or natural GRF(1-44)-NH2 at concentrations ranging from 3.1 to 200 fmol. per ml. of medium. Control wells contained no supplement. Plating was done with this medium added with 2% fetal calf serum to ensure rapid fixation of the cells. On the fourth day the cells were washed twice with the defined medium without fetal calf serum. Finally 900 μl of defined medium was added to each well plus 100 μl of the same medium containing each individual treatment, in triplicate. After 3 hours of incubation the medium was collected and diluted as required to conduct radioimmunoassays (RIAs) for rat growth hormone. RIAs were conducted using Sinha's anti-murine GH immune serum.

growth hormone release = settings: compared with amidated 44 amino acid GRF; cited from earlier work

Compound: CC[C@H](C)[C@H](NC(=O)[C@H](C)NC(=O)[C@H](CC(=O)O)NC(=O)[C@H](C)NC(=O)[C@@H](N)Cc1ccc(O)cc1)C(=O)N[C@@H](Cc1ccccc1)C(=O)N[C@H](C(=O)N[C@@H](CC(N)=O)C(=O)N[C@@H](CO)C(=O)N[C@@H](Cc1ccc(O)cc1)C(=O)N[C@@H](CCCNC(=N)N)C(=O)N[C@@H](CCCCN)C(=O)N[C@H](C(=O)N[C@@H](CC(C)C)C(=O)NCC(=O)N[C@@H](CCC(N)=O)C(=O)N[C@@H](CC(C)C)C(=O)N[C@@H](CO)C(=O)N[C@@H](C)C(=O)N[C@@H](CCCNC(=N)N)C(=O)N[C@@H](CCCCN)C(=O)N[C@@H](CC(C)C)C(=O)N[C@@H](CC(C)C)C(=O)N[C@@H](CCC(N)=O)C(=O)N[C@@H](CC(=O)O)C(=O)N[C@H](C(=O)N[C@@H](CC(C)C)C(=O)N[C@@H](CO)C(=O)N[C@@H](CCCNC(=N)N)C(=O)N[C@@H](CCC(N)=O)C(=O)N[C@@H](CCC(N)=O)C(=O)NCC(=O)N[C@@H](CCC(=O)O)C(=O)N[C@@H](CO)C(=O)N[C@@H](CC(N)=O)C(=O)N[C@@H](CCC(N)=O)C(=O)N[C@@H](CCC(=O)O)C(=O)N[C@@H](CCCNC(=N)N)C(=O)NCC(=O)N[C@@H](C)C(=O)N[C@@H](CCCNC(=N)N)C(=O)N[C@@H](C)C(=O)N[C@@H](CCCNC(=N)N)C(=O)N[C@@H](CC(C)C)C(=O)O)[C@@H](C)CC)C(C)C)[C@@H](C)O [(Leu^27)-GRF(1-44)-OH]
- Relative potency compared to the Salk Institute standard (rat pituitary cells; computerized analysis of the data of Tables 1 and 2, standard = GRF(1-44)-NH2): 1.063
- Growth hormone releasing activity compared with GRF(1-44)-NH2 (in words) (rat pituitary cells; data of Tables 1 and 2): about the same level as GRF(1-44)-NH2 or slightly higher
- Growth Hormone Released, Percentage of Control (rat pituitary cells; dose 3.1 f mol./ml.): 162 Percentage of Control
- Growth Hormone Released (rat pituitary cells; dose 3.1 f mol./ml.): 133 ng/mL
- Growth Hormone Released, Percentage of Control (rat pituitary cells; dose 6.3 f mol./ml.): 204 Percentage of Control
- Growth Hormone Released (rat pituitary cells; dose 6.3 f mol./ml.): 167 ng/mL
- Growth Hormone Released, Percentage of Control (rat pituitary cells; dose 12.5 f mol./ml.): 272 Percentage of Control
- Growth Hormone Released (rat pituitary cells; dose 12.5 f mol./ml.): 223 ng/mL
- Growth Hormone Released, Percentage of Control (rat pituitary cells; dose 25.0 f mol./ml.): 329 Percentage of Control
- Growth Hormone Released (rat pituitary cells; dose 25.0 f mol./ml.): 270 ng/mL
- Growth Hormone Released, Percentage of Control (rat pituitary cells; dose 50.0 f mol./ml.): 417 Percentage of Control
- Growth Hormone Released (rat pituitary cells; dose 50.0 f mol./ml.): 342 ng/mL
- Growth Hormone Released, Percentage of Control (rat pituitary cells; dose 100.0 f mol./ml.): 516 Percentage of Control
- Growth Hormone Released (rat pituitary cells; dose 100.0 f mol./ml.): 423 ng/mL
- Growth Hormone Released, Percentage of Control (rat pituitary cells; dose 200.0 f mol./ml.): 649 Percentage of Control
- Growth Hormone Released (rat pituitary cells; dose 200.0 f mol./ml.): 532 ng/mL
- Growth hormone released in vitro relative to the amount of peptide administered (rat pituitary cells; in vitro): on the order of ten times or more the amount of (Leu^27)-GRF-OH administered

Compound: free acid form of the 44 amino acid GRF: 44 amino acid GRF with the amide group removed, free acid form (YADAIFTNSYRKVLGQLSARKLLQDIMSRQQGESNQERGARARL-OH; UniProt P01286 32-75, looked up)
- Biological activity after removal of the amide group (in words) (growth hormone release): significant loss of biological activity
